Experimental data as given in patent publication US6441195B1, “Substituted sulphonylamino(thio) carbonyl compounds” (Bayer Aktiengesellschaft, priority 1995, dated 2002).

What was measured:
Type in all cases: in vivo
weeds [1] = assay: Pre-emergence test (greenhouse), activity against weeds; conditions: in words
Outline: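 Three weeks after treatment, % damage relative to untreated plants is scored, 0% meaning no effect. Seeds in normal soil received, roughly one day post-sowing, an aqueous dilution of an acetone/emulsifier concentrate, with the rate per unit area, not concentration, being the relevant dose.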

weeds [2] = assay: Post-emergence test (greenhouse), activity against weeds; conditions: in words
Description: (§1) Solvent: 5 parts by weight of acetone
(§2) Emulsifier: 1 part by weight of alkylaryl polyglycol ether
(§3) To produce a suitable preparation of active compound, 1 part by weight of active compound is mixed with the stated amount of solvent, the stated amount of emulsifier is added and the concentrate is diluted with water to the desired concentration.
(§4) Test plants which have a height of 5-15 cm are sprayed with the preparation of the active compound in such a way as to apply the particular amounts of active compound desired per unit area. The concentration of the spray liquor is chosen so that the particular amounts of active compound desired are applied in 2000 l of water/ha.
(§5) After three weeks, the degree of damage to the plants is rated in % damage in comparison to the development of the untreated control.
(§6) 0%=no action (like untreated control)

Digitaria = assay: Post-emergence test/greenhouse, Digitaria; conditions: greenhouse, after three weeks
Description: as §1, §2, §3, §4, §5, §6

Echinochloa = assay: Post-emergence test/greenhouse, Echinochloa; conditions: greenhouse, after three weeks
Description: as §1, §2, §3, §4, §5, §6

Lolium [3] = assay: Post-emergence test/greenhouse, Lolium; conditions: greenhouse, after three weeks
Description: as §1, §2, §3, §4, §5, §6

Sorghum [4] = assay: Post-emergence test/greenhouse, Sorghum; conditions: greenhouse, after three weeks
Description: as §1, §2, §3, §4, §5, §6

Amaranthus = assay: Post-emergence test/greenhouse, Amaranthus; conditions: greenhouse, after three weeks
Description: as §1, §2, §3, §4, §5, §6

Gallium = assay: Post-emergence test/greenhouse, Gallium; conditions: greenhouse, after three weeks
Description: as §1, §2, §3, §4, §5, §6

Matricaria [5] = assay: Post-emergence test/greenhouse, Matricaria; conditions: greenhouse, after three weeks
Description: as §1, §2, §3, §4, §5, §6

Stellaria = assay: Post-emergence test/greenhouse, Stellaria; conditions: greenhouse, after three weeks
Description: as §1, §2, §3, §4, §5, §6

Maize = assay: Pre-emergence test/Greenhouse, Maize; conditions: in vivo
Outline: (§7)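 Emulsifier-formulated compound applied by soil watering ~24 h after sowing; damage scored at three weeks as % of untreated control.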

Lolium [6] = assay: Pre-emergence test/Greenhouse, Lolium; conditions: after three weeks
Outline: as §7

Poa = assay: Pre-emergence test/Greenhouse, Poa; conditions: after three weeks
Outline: as §7

Sorghum [7] = assay: Pre-emergence test/Greenhouse, Sorghum; conditions: after three weeks
Outline: as §7

Ambrosia = assay: Pre-emergence test/Greenhouse, Ambrosia; conditions: after three weeks
Outline: as §7

Matricaria [8] = assay: Pre-emergence test/Greenhouse, Matricaria; conditions: after three weeks
Outline: as §7

Solanum = assay: Pre-emergence test/Greenhouse, Solanum; conditions: after three weeks
Outline: as §7

Soya beans = assay: Pre-emergence test/Greenhouse, Soya beans; conditions: in vivo
Outline: as §7

## CCOC(=O)c1scc(C)c1S(=O)(=O)NC(=O)n1nc(OCC)n(C2CC2)c1=O [Example 63]
Weeds [1]
  activity against weeds: very strong activity against weeds
Weeds [2]
  activity against weeds: very strong activity against weeds
Digitaria; 60 g of ai./ha
  degree of damage, Digitaria: 50%
Echinochloa; 60 g of ai./ha
  degree of damage, Echinochloa: 90%
Lolium [3]; 60 g of ai./ha
  degree of damage, Lolium: 70%
Sorghum [4]; 60 g of ai./ha
  degree of damage, Sorghum: 80%
Amaranthus; 60 g of ai./ha
  degree of damage, Amaranthus: 100%
Gallium; 60 g of ai./ha
  degree of damage, Gallium: 90%
Matricaria [5]; 60 g of ai./ha
  degree of damage, Matricaria: 95%
Stellaria; 60 g of ai./ha
  degree of damage, Stellaria: 100%
Maize
  degree of damage to the plants (% damage vs untreated control), Maize: 10%
Lolium [6]; 60 g of ai./ha
  degree of damage to the plants (% damage vs untreated control), Lolium: 100%
Poa; 60 g of ai./ha
  degree of damage to the plants (% damage vs untreated control), Poa: 95%
Sorghum [7]; 60 g of ai./ha
  degree of damage to the plants (% damage vs untreated control), Sorghum: 80%
Ambrosia; 60 g of ai./ha
  degree of damage to the plants (% damage vs untreated control), Ambrosia: 100%
Matricaria [8]; 60 g of ai./ha
  degree of damage to the plants (% damage vs untreated control), Matricaria: 100%
Solanum; 60 g of ai./ha
  degree of damage to the plants (% damage vs untreated control), Solanum: 100%

## CCCOc1nn(C(=O)NS(=O)(=O)c2c(C)cccc2C(=O)OC)c(=O)n1C [Example 140]
Weeds [1]
  activity against weeds: very strong activity against weeds
Weeds [2]
  activity against weeds: very strong activity against weeds
Digitaria; 250 g of ai./ha
  degree of damage, Digitaria: 95%
Echinochloa; 250 g of ai./ha
  degree of damage, Echinochloa: 90%
Sorghum [4]; 250 g of ai./ha
  degree of damage, Sorghum: 95%
Amaranthus; 250 g of ai./ha
  degree of damage, Amaranthus: 100%
Gallium; 250 g of ai./ha
  degree of damage, Gallium: 95%
Matricaria [5]; 250 g of ai./ha
  degree of damage, Matricaria: 90%
Stellaria; 250 g of ai./ha
  degree of damage, Stellaria: 70%
Soya beans
  degree of damage to the plants (% damage vs untreated control), Soya beans: 10%
Poa; 30 g of ai./ha
  degree of damage to the plants (% damage vs untreated control), Poa: 95%
Sorghum [7]; 30 g of ai./ha
  degree of damage to the plants (% damage vs untreated control), Sorghum: 95%
Ambrosia; 30 g of ai./ha
  degree of damage to the plants (% damage vs untreated control), Ambrosia: 80%
Matricaria [8]; 30 g of ai./ha
  degree of damage to the plants (% damage vs untreated control), Matricaria: 80%
Solanum; 30 g of ai./ha
  degree of damage to the plants (% damage vs untreated control), Solanum: 95%

## CCCOc1nn(C(=O)[N-]S(=O)(=O)c2c(C)cccc2C(=O)OC)c(=O)n1C.[Na+] [Example 144]
Weeds [1]
  activity against weeds: very strong activity against weeds
Weeds [2]
  activity against weeds: very strong activity against weeds
Digitaria; 250 g of ai./ha
  degree of damage, Digitaria: 95%
Echinochloa; 250 g of ai./ha
  degree of damage, Echinochloa: 95%
Lolium [3]; 250 g of ai./ha
  degree of damage, Lolium: 70%
Sorghum [4]; 250 g of ai./ha
  degree of damage, Sorghum: 95%
Amaranthus; 250 g of ai./ha
  degree of damage, Amaranthus: 100%
Gallium; 250 g of ai./ha
  degree of damage, Gallium: 95%
Matricaria [5]; 250 g of ai./ha
  degree of damage, Matricaria: 70%
Stellaria; 250 g of ai./ha
  degree of damage, Stellaria: 95%
Lolium [6]; 125 g of ai./ha
  degree of damage to the plants (% damage vs untreated control), Lolium: 90%
Poa; 125 g of ai./ha
  degree of damage to the plants (% damage vs untreated control), Poa: 90%
Sorghum [7]; 125 g of ai./ha
  degree of damage to the plants (% damage vs untreated control), Sorghum: 95%
Ambrosia; 125 g of ai./ha
  degree of damage to the plants (% damage vs untreated control), Ambrosia: 80%
Matricaria [8]; 125 g of ai./ha
  degree of damage to the plants (% damage vs untreated control), Matricaria: 95%
Solanum; 125 g of ai./ha
  degree of damage to the plants (% damage vs untreated control), Solanum: 95%

## COC(=O)c1cccc(C)c1S(=O)(=O)NC(=O)n1nc(OC)n(C)c1=O [Example 162]
Weeds [1]
  activity against weeds: very strong activity against weeds
Weeds [2]
  activity against weeds: very strong activity against weeds
Digitaria; 60 g of ai./ha
  degree of damage, Digitaria: 70%
Echinochloa; 60 g of ai./ha
  degree of damage, Echinochloa: 80%
Lolium [3]; 60 g of ai./ha
  degree of damage, Lolium: 90%
Sorghum [4]; 60 g of ai./ha
  degree of damage, Sorghum: 80%
Matricaria [5]; 60 g of ai./ha
  degree of damage, Matricaria: 60%
Stellaria; 60 g of ai./ha
  degree of damage, Stellaria: 90%
Soya beans
  degree of damage to the plants (% damage vs untreated control), Soya beans: 0%
Lolium [6]; 60 g of ai./ha
  degree of damage to the plants (% damage vs untreated control), Lolium: 95%
Poa; 60 g of ai./ha
  degree of damage to the plants (% damage vs untreated control), Poa: 95%
Sorghum [7]; 60 g of ai./ha
  degree of damage to the plants (% damage vs untreated control), Sorghum: 90%
Ambrosia; 60 g of ai./ha
  degree of damage to the plants (% damage vs untreated control), Ambrosia: 80%
Matricaria [8]; 60 g of ai./ha
  degree of damage to the plants (% damage vs untreated control), Matricaria: 95%
Solanum; 60 g of ai./ha
  degree of damage to the plants (% damage vs untreated control), Solanum: 95%
